Experimental data reported in patent US5817667A, “Compounds and methods for the treatment of cancer” (University of Georgia Research Foudation, priority 1994, dated 1998).

Assays:
RL-60(TB) = assay: NCI cancer screening, growth inhibition (SRB); format: cell-based; details: Leukemia, 48 hours exposure
[1] = NCI cancer screening, growth inhibition (SRB); format: cell-based; details: Leukemia; 48 hours exposure; read-out: Log10 GI50 (converted)
BSOLT-4 = assay: NCI cancer screening, growth inhibition (SRB); format: cell-based; details: Leukemia; 48 hours exposure
HOP-62 = assay: NCI cancer screening, growth inhibition (SRB); format: cell-based; details: Non-Small Cell Lung Cancer, 48 hours exposure
NCI-H460 = assay: NCI cancer screening, growth inhibition (SRB); format: cell-based; details: Non-Small Cell Lung Cancer, 48 hours exposure
COLO205 = assay: NCI cancer screening, growth inhibition (SRB); format: cell-based; details: Homo sapiens, COLO 205, 48 h, read-out: Log10 GI50 (converted)
HCT-116 = assay: NCI cancer screening, growth inhibition (SRB); format: cell-based; details: Colon Cancer, 48 hours exposure
SP-268 = assay: NCI cancer screening, growth inhibition (SRB); format: cell-based; details: 48 h, read-out: Log10 GI50 (converted)
U251 = assay: NCI cancer screening, growth inhibition (SRB); format: cell-based; details: CNS Cancer, 48 hours exposure
MALME-3M = assay: NCI cancer screening, growth inhibition (SRB); format: cell-based; details: Melanoma, 48 hours exposure
M14 = assay: NCI cancer screening, growth inhibition (SRB); format: cell-based; details: Melanoma, 48 hours exposure
SK-MEL-5 = assay: NCI cancer screening, growth inhibition (SRB); format: cell-based; details: Melanoma, 48 hours exposure
OROV1 = assay: NCI cancer screening, growth inhibition (SRB); format: cell-based; details: Ovarian Cancer; 48 hours exposure
Text: PG=100×(Mean ODtest -Mean ODtzero)/(Mean ODtzero)

OVCAR-4 = assay: NCI cancer screening, growth inhibition (SRB); format: cell-based
OVCAR-5 = assay: NCI cancer screening, growth inhibition (SRB); format: cell-based; details: Ovarian Cancer, 48 hours exposure
OVCAR-8 = assay: NCI cancer screening, growth inhibition (SRB); format: cell-based; details: Homo sapiens, OVCAR-8, 48 h, read-out: Log10 GI50 (converted)
SK-OV-3 = assay: NCI cancer screening, growth inhibition (SRB); format: cell-based; details: Homo sapiens, SK-OV-3, 48 h, read-out: Log10 GI50 (converted)
785-4 = assay: NCI cancer screening, growth inhibition (SRB); format: cell-based; details: Renal Cancer, 48 hours exposure
ACHN = assay: NCI cancer screening, growth inhibition (SRB); format: cell-based; details: Renal Cancer, 48 hours exposure
CAKI-1 = assay: NCI cancer screening, growth inhibition (SRB); format: cell-based; details: Renal Cancer, 48 hours exposure
DU-145 = assay: NCI cancer screening, growth inhibition (SRB); format: cell-based; details: Prostate Cancer; 48 hours exposure
Colon 38 tumor cells = assay: In vivo treatment of Colon 38 tumor cells implanted sc in BDF1 mice; details: 25 mg/kg/dose twice daily for five days, FIG. 2
Text: The graph plots tumor growth as a percentage of original tumor weight vs. days. Treatment of the mice occurred in days 1, 2, 3, 4 and 5.
Colon 38 tumor cells were implanted sc to BDF1 mice.

colon cell lines = assay: NCI cancer screening, relative sensitivity (FIG. 4); format: cell-based; details: FIG. 4, certain colon cell lines
Text: (§1) Bars extending to the right represent sensitivity of the cell line to (-)-OddC in excess of the average sensitivity of all tested cell lines. […] Bars extending to the left correspondingly imply sensitivity less than the mean. These cell lines can be easily determined from Table 2, as the log10 concentration will be preceded by a ">".

[2] = system: each type of cancer cell tested; assay: as above; format: cell-based; details: FIG. 4, on the basis of GI50; at least one cell line of each type
Text: as §1

leukemia cell lines = assay: as above; format: cell-based; details: FIG. 4, certain leukemia cell lines
Text: as §1

[3] = system: prostate cancer cell lines; assay: as above; format: cell-based; details: FIG. 4, certain prostate cancer cell lines
Text: as §1

[4] = Non-Small Cell Lung Cancer; 48 hours exposure
NCI-H322M [5] = details: Non-Small Cell Lung Cancer; 48 hours exposure
K2112 = details: Colon Cancer; 48 hours exposure
NCI-H322M [6] = assay: cells; details: Homo sapiens, 48 h, read-out: Log10 GI50 (converted)
[7] = read-out: Log10 GI50 (converted)

Structure (SMILES): Nc1ccn([C@@H]2CO[C@H](CO)O2)c(=O)n1 [(-)-OddC, (-)-(2S,4S)-1-(2-hydroxymethyl-1,3-dioxolan-4-yl)cytosine]
- Log10 TGI (RL-60(TB)): > -4.00
- GI50 (RL-60(TB); [7]): 525 nM
- GI50 [1]: 219 nM
- Log10 TGI (BSOLT-4): -4.39
- GI50 (HOP-62; Homo sapiens, HOP-62, read-out: Log10 GI50 (converted)): 589 nM
- Log10 TGI (HOP-62): -4.71
- GI50 (NCI-H460; Homo sapiens, NCI-H460, read-out: Log10 GI50 (converted)): 47.9 µM
- Log10 TGI (NCI-H460): > -4.00
- GI50 (COLO205): 93.3 µM
- Log10 TGI (HCT-116): > -4.00
- GI50 (HCT-116; Homo sapiens, HCT-116, read-out: Log10 GI50 (converted)): 5.89 µM
- GI50 (SP-268): 6.61 µM
- Log10 TGI (U251): > -4.00
- GI50 (U251; Homo sapiens, U-251, read-out: Log10 GI50 (converted)): 12.3 µM
- GI50 (MALME-3M; Homo sapiens, Malme-3M, read-out: Log10 GI50 (converted)): 30.9 µM
- Log10 TGI (MALME-3M): > -4.00
- GI50 (M14; Homo sapiens, M14, read-out: Log10 GI50 (converted)): 537 nM
- Log10 TGI (M14): -5.07
- GI50 (SK-MEL-5; Homo sapiens, SK-MEL-5, read-out: Log10 GI50 (converted)): 12.3 µM
- Log10 TGI (SK-MEL-5): > -4.00
- Log10 TGI (OROV1): > -4.00
- GI50 (OVCAR-4; Homo sapiens, OVCAR-4, 48 h, read-out: Log10 GI50 (converted)): > 100 µM
- Log10 TGI (OVCAR-4; Ovarian Cancer, 48 hours exposure): > -4.00
- GI50 (OVCAR-5; Homo sapiens, OVCAR-5, read-out: Log10 GI50 (converted)): 38.9 µM
- Log10 TGI (OVCAR-5): > -4.00
- GI50 (OVCAR-8): 1510 nM
- GI50 (SK-OV-3): 4.47 µM
- Log10 TGI (785-4): > -4.00
- GI50 (785-4; [7]): 4.37 µM
- GI50 (ACHN; Homo sapiens, ACHN, read-out: Log10 GI50 (converted)): 347 nM
- Log10 TGI (ACHN): > -4.00
- GI50 (CAKI-1; Homo sapiens, CAKI-1, read-out: Log10 GI50 (converted)): 224 nM
- Log10 TGI (CAKI-1): -4.87
- Log10 TGI (DU-145): > -4.00
- colon tumor cell growth (Colon 38 tumor cells): retarded
- sensitivity to (-)-OddC (colon cell lines): extreme sensitivity
- sensitivity to (-)-OddC [2]: exhibited sensitivity
- sensitivity to (-)-OddC (leukemia cell lines): extreme sensitivity
- sensitivity to (-)-OddC [3]: extreme sensitivity
- Log10 TGI [4]: > -4.00
- Log10 TGI (NCI-H322M [5]): > -4.00
- Log10 TGI (K2112): > -4.00
- GI50 (NCI-H322M [6]): > 100 µM
